Results: the NIST ThermoML archive (doi:10.1016/j.jct.2004.12.011)
Values joined by “and” are separate entries in the source; they are usually repeats but may differ in a detail not shown here. Equal values may be shown once. Numbers after ± are expanded uncertainties.

Columns and labels:
[1] = DTA
[2] = Molar enthalpy of transition or fusion; details: DSC
[3] = molar enthalpy of vaporization or sublimation; details: 298.15 K; Crystal 1; DSC

SMILES | Triple point temperature ([1]; Crystal 1) [K] | Molar enthalpy of transition or fusion ([2]; Crystal 1) [kcal/mol] | Triple point temperature ([1]; Crystal 2) [K] | Molar enthalpy of transition or fusion ([2]; Crystal 2) [kcal/mol] | Triple point temperature ([1]; Crystal 3) [K] | Molar enthalpy of transition or fusion ([2]; Crystal 3) [kcal/mol] | molar enthalpy [3]
O=C(O)CCCCC(=O)O [1,6-hexanedioic acid] | 419 ± 2.8 | 8.05 ± 0.239 | – | – | – | – | –
O=C(O)CCCCCCCCC(=O)O [1,10-decanedioic acid] | 403.9 ± 0.9 | 11.1 ± 2.39 | 370.3 ± 0.5 | 0.0956 ± 0.0478 | – | – | –
O=C(O)CCCCCCC(=O)O [1,8-octanedioic acid] | 413.2 ± 0.5 | 7.34 ± 0.239 | 403.6 ± 0.5 | 2.17 ± 0.0717 | 355.9 ± 1.6 | 0.478 ± 0.382 | 36.1 ± 1.94 kcal/mol
O=C(O)CCCCCCCCCCCCCCC(=O)O [hexadecanedioic acid] | 395.4 ± 1.3 | 12.5 ± 0.263 | – | – | – | – | –
O=C(O)CCCCCCCCCCC(=O)O [1,12-dodecanedioic acid] | 400.3 ± 1.3 | 11.9 ± 0.574 | 387 ± 1 | -0.0239 ± 0.0956 | 359.5 ± 9.6 | 0.0143 ± 0.0359 | 41 ± 2.17 kcal/mol
O=C(O)CCCCCCCCCCCCC(=O)O [1,12-dodecanedicarboxylic acid] | 397.3 ± 0.5 | 13.5 ± 0.813 | – | – | – | – | 41.8 ± 2.22 kcal/mol
O=C(O)CCCCCCCCCC(=O)O [1,11-undecanedioic acid] | 380.1 ± 1.6 | 9.85 ± 0.789 | 355.3 ± 0.9 | 0.382 ± 0.239 | – | – | 39.1 kcal/mol and 39.3 kcal/mol
O=C(O)CCCC(=O)O [1,5-pentanedioic acid] | 363.9 ± 13 | 4.49 ± 0.143 | 340.5 ± 3.6 | 0.55 ± 0.143 | – | – | 28.5 ± 1.53 kcal/mol
O=C(O)CCCCCCCC(=O)O [1,9-nonanedioic acid] | 372.4 ± 2.4 | 7.1 ± 0.454 | 339.8 ± 8.4 | 0.167 ± 0.143 | 330.6 ± 0.5 | 0.00239 | 34.5 ± 1.84 kcal/mol
O=C(O)CCCCCC(=O)O [1,7-heptanedioic acid] | 368.2 ± 3.2 | 5.66 ± 0.598 | 366.3 ± 2.8 | – | 337.7 ± 3.2 | 0.359 ± 0.143 | 31.8 ± 1.7 kcal/mol
O=C(O)CCC(=O)O [butanedioic acid] | 455.2 ± 2.4 | 8.13 ± 0.239 | – | – | – | – | –
O=C(O)CCCCCCCCCCCC(=O)O [tridecanedioic acid] | 386.3 ± 2.8 | 11.8 ± 0.239 | – | – | – | – | –
